From PubChem BioAssay AID1259407 (Chemical Carcinogenesis Research Information System (CCRIS), 2018)
The source made the active and inactive calls. No rule for the calls is given here.

System: CCRIS mutagenicity, Ames/micronucleus/aberration tests
Assay: CCRIS mutagenicity studies

`CCN(CC)N=O` was tested, and the mutagenic call (Test System: AMES SALMONELLA TYPHIMURIUM, Strain/Indicator: TA2410, Metabolic Activation: NONE, Method: HOST-MEDIATED) was “active; positive”, the mutagenic call (Test System: AMES SALMONELLA TYPHIMURIUM, Strain/Indicator: TA2678, Metabolic Activation: NONE, Method: HOST-MEDIATED) was “active; positive” and the mutagenic call (Test System: AMES SALMONELLA TYPHIMURIUM, Strain/Indicator: YG1024, Metabolic Activation: NONE, Method: PREINCUBATION) was “inactive; negative”. For the same compound, the mutagenic call (Test System: AMES SALMONELLA TYPHIMURIUM, Strain/Indicator: YG1024, Metabolic Activation: RAT LIVER S-9, AROCLOR, Method: PREINCUBATION) was “active; positive”, the mutagenic call (Test System: AMES SALMONELLA TYPHIMURIUM, Strain/Indicator: YG7100, Metabolic Activation: S-9, Method: PREINCUBATION) was “inactive; negative” and the mutagenic call (Test System: AMES SALMONELLA TYPHIMURIUM, Strain/Indicator: YG7104, Metabolic Activation: S-9, Method: PREINCUBATION) was “active; positive”. For the same compound, the mutagenic call (Test System: AMES SALMONELLA TYPHIMURIUM, Strain/Indicator: YG7104ER, Metabolic Activation: NONE, Method: STANDARD PLATE) was “active; positive”, the mutagenic call (Test System: AMES SALMONELLA TYPHIMURIUM, Strain/Indicator: YG7108-2A6-OR, Metabolic Activation: NONE, Method: PREINCUBATION) was “active; positive” and the mutagenic call (Test System: AMES SALMONELLA TYPHIMURIUM, Strain/Indicator: YG7108-2A6, Metabolic Activation: NONE, Method: PREINCUBATION) was “active; positive”. The mutagenic call (Test System: AMES SALMONELLA TYPHIMURIUM, Strain/Indicator: YG7108-PCW, Metabolic Activation: NONE, Method: PREINCUBATION) was “inactive; negative”, the mutagenic call (Test System: AMES SALMONELLA TYPHIMURIUM, Strain/Indicator: YG7108, Metabolic Activation: RAT LIVER S-9, PHENOBARBITAL AND 5,6-BENZOFLAVONE, Method: PREINCUBATION) was “active; positive” and the mutagenic call (Test System: AMES SALMONELLA TYPHIMURIUM, Strain/Indicator: YG7108, Metabolic Activation: S-9, Method: PREINCUBATION) was “active; positive”. For the same compound, the mutagenic call (Test System: AMES SALMONELLA TYPHIMURIUM, Strain/Indicator: YG7108ER, Metabolic Activation: NONE, Method: STANDARD PLATE) was “active; positive”, the mutagenic call (Test System: AMES SALMONELLA TYPHIMURIUM, Strain/Indicator: YG7112, Metabolic Activation: S-9, Method: PREINCUBATION) was “active; positive” and the mutagenic call (Test System: AMES SALMONELLA TYPHIMURIUM, Strain/Indicator: YG7113, Metabolic Activation: S-9, Method: PREINCUBATION) was “active; positive”. For the same compound, the mutagenic call (Test System: AMES SALMONELLA TYPHIMURIUM, Strain/Indicator: YG7119, Metabolic Activation: S-9, Method: PREINCUBATION) was “inactive; negative”, the mutagenic call (Test System: Ames Salmonella typhimurium, Strain/Indicator: TA98, Metabolic Activation: None, Method: Preincubation) was “active; positive” and the mutagenic call (Test System: Ames Salmonella typhimurium, Strain/Indicator: TA98, Metabolic Activation: Rat, Liver, S-9, Aroclor 1254 (4%), Method: Preincubation) was “active; positive”. The mutagenic call (Test System: Ames Salmonella typhimurium, Strain/Indicator: TA98DNP6 (Acetyltransferase deficient), Metabolic Activation: None, Method: Preincubation) was “inactive; negative”, the mutagenic call (Test System: Ames Salmonella typhimurium, Strain/Indicator: TA98DNP6 (Acetyltransferase deficient), Metabolic Activation: Rat, Liver, S-9, Aroclor 1254 (4%), Method: Preincubation) was “inactive; negative” and the mutagenic call (Test System: Ames Salmonella typhimurium, Strain/Indicator: TA98NR, Metabolic Activation: None, Method: Preincubation) was “inactive; negative”. The mutagenic call (Test System: Ames Salmonella typhimurium, Strain/Indicator: TA98NR, Metabolic Activation: Rat, Liver, S-9, Aroclor 1254 (4%), Method: Preincubation) was “inactive; negative”, the mutagenic call (Test System: Ames Salmonella typhimurium, Strain/Indicator: YG1021, Metabolic Activation: None, Method: Preincubation) was “inactive; negative” and the mutagenic call (Test System: Ames Salmonella typhimurium, Strain/Indicator: YG1021, Metabolic Activation: Rat, Liver, S-9, Aroclor 1254 (4%), Method: Preincubation) was “inactive; negative”. The mutagenic call (Test System: Ames Salmonella typhimurium, Strain/Indicator: YG1024 (Acetyltransferase overproducing), Metabolic Activation: None, Method: Preincubation) was “inactive; negative”, the mutagenic call (Test System: Ames Salmonella typhimurium, Strain/Indicator: YG1024 (Acetyltransferase overproducing), Metabolic Activation: Rat, Liver, S-9, Aroclor 1254 (4%), Method: Preincubation) was “active; positive” and the mutagenic call (Test System: Ames Salmonella typhimurium, Strain/Indicator: YG1041 (Acetyltransferase and nitroreductase overproducing), Metabolic Activation: None, Method: Preincubation) was “inactive; negative”. For the same compound, the mutagenic call (Test System: Ames Salmonella typhimurium, Strain/Indicator: YG1041 (Acetyltransferase and nitroreductase overproducing), Metabolic Activation: Rat, Liver, S-9, Aroclor 1254 (4%), Method: Preincubation) was “inactive; negative”, the mutagenic call (Test System: Ames Salmonella typhimurium, Strain/Indicator: YG7108pin3ERb5, Metabolic Activation: None, Method: Standard plate) was “active; positive” and the mutagenic call (Test System: CHINESE HAMSTER V-79, Strain/Indicator: V-79 (HPRT)/6-THIOGUANINE, Metabolic Activation: RAT, HEPATOCYTES) was “active; positive”. For the same compound, the mutagenic call (Test System: CHINESE HAMSTER V-79, Strain/Indicator: V-79 (HPRT)/6-THIOGUANINE, Metabolic Activation: RAT, HEPATOMA, H4IIE CELLS) was “inactive; negative”, the mutagenic call (Test System: CHINESE HAMSTER V-79, Strain/Indicator: V-79 (HPRT)/6-THIOGUANINE, Metabolic Activation: RAT, LIVER, S-9, AROCLOR 1254) was “active; positive” and the mutagenic call (Test System: CHINESE HAMSTER V-79, Strain/Indicator: V-79/8-AZAGUANINE, Metabolic Activation: RAT, LIVER, S-15, PHENOBARBITAL, Method: STANDARD PLATE) was “active; positive”. For the same compound, the mutagenic call (Test System: CHINESE HAMSTER V-79, Strain/Indicator: V-79/OUABAIN, Metabolic Activation: CELL-MEDIATED, Method: STANDARD PLATE) was “active; positive”, the mutagenic call (Test System: CHINESE HAMSTER V-79, Strain/Indicator: V-79/OUABAIN, Metabolic Activation: HAMSTER, HEPATOCYTES, Method: CELL-MEDIATED) was “active; positive” and the mutagenic call (Test System: E. COLI, Strain/Indicator: WP2 (HCR-), Metabolic Activation: RAT, LIVER, MICROSOMES, PHENOBARBITAL) was “active; positive”. The mutagenic call (Test System: E. COLI, Strain/Indicator: WP2 UVRA, Metabolic Activation: HAMSTER, LIVER, S-9, AROCLOR 1254, Method: PREINCUBATION) was “active; positive”, the mutagenic call (Test System: E. COLI, Strain/Indicator: WP2 UVRA, Metabolic Activation: HAMSTER, LIVER, S-9, AROCLOR 1254, Method: STANDARD PLATE) was “inactive; negative” and the mutagenic call (Test System: E. COLI, Strain/Indicator: WP2 UVRA, Metabolic Activation: HAMSTER, LIVER, S-9, Method: PREINCUBATION) was “active; positive”. The mutagenic call (Test System: E. COLI, Strain/Indicator: WP2 UVRA, Metabolic Activation: HAMSTER, LIVER, S-9, Method: STANDARD PLATE) was “inactive; negative”, the mutagenic call (Test System: E. COLI, Strain/Indicator: WP2 UVRA, Metabolic Activation: MOUSE, LIVER, S-9, AROCLOR 1254, Method: STANDARD PLATE) was “inactive; negative” and the mutagenic call (Test System: E. COLI, Strain/Indicator: WP2 UVRA, Metabolic Activation: MOUSE, LIVER, S-9, Method: STANDARD PLATE) was “inactive; negative”. The mutagenic call (Test System: E. COLI, Strain/Indicator: WP2 UVRA, Metabolic Activation: NONE, Method: STANDARD PLATE) was “inactive; negative”, the mutagenic call (Test System: E. COLI, Strain/Indicator: WP2 UVRA, Metabolic Activation: RAT, LIVER, S-9, Method: PREINCUBATION) was “inactive; negative” and the mutagenic call (Test System: E. COLI, Strain/Indicator: WP2 UVRA, Metabolic Activation: RAT, LIVER, S-9, Method: STANDARD PLATE) was “inactive; negative”. The mutagenic call (Test System: MOUSE LYMPHOMA, Strain/Indicator: L5178Y (TK+/TK-), Metabolic Activation: RAT, LIVER, S-9, AROCLOR 1254, Method: SUSPENSION/PLATE) was “active; positive”, the mutagenic call (Test System: UDS RAT HEPATOCYTES, Strain/Indicator: THY INCORP, Metabolic Activation: NONE, Method: LIQUID SCINTILLATION COUNTING) was “active; positive” and the mutagenic call (Test System: UDS RODENT HEPATOCYTES, Strain/Indicator: THY INCORP (NON-S-PHASE), Method: AUTORADIOGRAPHY) was “active; positive”.
